Paper PMC12040169 (PLOS Biology, 2025)

Assay: in vitro
Details: human, hela cells, % viability

Compound | viability at 28.5 h, 10 µM [%] | viability at 28.5 h, 10 µM (bulk resorufin, single well) [%]
CCc1c(C)nn(-c2ccccc2Br)c1-c1ccccc1 [CBK016757] | 87.9 | –
CN(c1ncccc1C#N)C1CCN(CCC(N)=O)CC1 [CBK016793] | 87.2 | –
CN(C)c1ncnc2[nH]ncc12 [CBK016810] | 115 | –
CCNc1cccnc1N(CC)C1CCN(C(=O)c2cc3cc4c(cc3[nH]2)OCO4)CC1 [CBK016815] | 111 | –
CC(C)c1ccnc(C(C)Sc2nc(N)c(Br)c(Cl)n2)c1 (centres unmarked) [CBK016828] | 86.1 | –
COc1ccc(CCC(=O)c2cnc3sc4c(n23)CCCCC4)cc1 [CBK016849] | 109 | –
O=C(Nc1cccc(F)c1)c1cc2ccccc2cc1O [CBK016863] | 102 | –
O=C(Nc1cccc(Cl)c1)c1cc2cc(O)ccc2cc1O [CBK016894] | 98.2 | –
O=C1NCCN1c1cccc(Cl)c1 [CBK016915] | 88.3 | –
Cc1csc2c(NC(C)C)ncnc12 [CBK017059] | 95.7 | –
Cc1csc2ncnc(NCCc3ccccn3)c12 [CBK017060] | 67.1 | –
CSc1nnc(-c2ccc(C(C)(C)C)cc2)n1Cc1ccco1 [CBK017071] | 92.1 | –
Cc1cc(NC(=O)CCN2CCCCC2)no1 [CBK017079] | 99 | –
O=C1NCCCCC1N1CCS(=O)(=O)CC1 (centres unmarked) [CBK017083] | 99.2 | –
CC1CN(C(=O)NC(=O)c2ccc(-c3csnn3)cc2)CC(C)O1 (centres unmarked) [CBK017091] | 87.7 | –
CSc1sc(NC(=O)Nc2cccc(C(F)(F)F)c2)cc1C#N [CBK017114] | 93.9 | –
O=C(O)c1cccc2c1Sc1ccccc1O2 [CBK017129] | 90.8 | –
Nc1cc(Cl)cc2[nH]c(=O)c3cc(Cl)ccc3c12 [CBK017144] | 73.3 | –
O=C(Nc1ccc(F)cc1)OCC1COc2ccccc2C1 (centres unmarked) [CBK017146] | 85.5 | –
O=C1Nc2ccccc2C12NN=C(c1ccccc1)S2 (centres unmarked) [CBK017221] | 100 | –
CCOC(=O)C(N)CSC1CC(=O)N(c2ccc(Br)cc2)C1=O (centres unmarked) [CBK017250C] | 102 | –
O=c1cc(NCc2ccncc2)c2ccccc2o1 [CBK017259] | 93.5 | –
CS(=O)(=O)c1nc2cccnc2s1 [CBK017260] | 95.2 | –

Compound | viability at 28.5 h, 10 µM [%] | viability at 28.5 h, 10 µM (bulk resorufin, single well) [%]
O=C1CSC(c2cccnc2)N1CCc1ccccn1 (centres unmarked) [CBK017292] | 96.7 | –
Cc1cc(C)[n+]2c(n1)N(c1ccccc1)CC2 [CBK017327G] | 80.7 | –
CCn1c(=O)c2c(cnn2C)c2ccccc21 [CBK017345] | 81.3 | –
N#Cc1[nH]nnc1-c1ccc(OC(F)(F)F)cc1 [CBK017386] | 95.1 | –
COc1cc(/C=C(/C#N)C(N)=O)cc(Br)c1O [CBK017409] | 88.1 | –
Nc1nnc(Nc2ccc(Cl)cc2)[nH]1 [CBK017433] | 91.7 | –
CCCCCc1c(C)nc(-c2ccccn2)nc1O [CBK017441] | 86.4 | –
Nc1ncnc(Nc2cccc(F)c2)n1 [CBK017447] | 91.7 | –
Cc1cc(C2(C(F)(F)F)C=C3c4ccccc4CC(C)(C)N3C2=O)cc(C)c1O (centres unmarked) [CBK017463] | 99.2 | –
OC[C@@H](c1ccccc1)N1CC[C@H]2c3ccc(Br)cc3CC[C@H]21 [CBK017507C] | 84.4 | –
CC(C)Cn1cnc2c(Cl)nc3ccccc3c21 [CBK017530] | 86.4 | –
CC(=O)NC[C@H]1CN(c2ccc(C3=CC[S+]([O-])CC3)c(F)c2)C(=O)O1 (some centres unmarked) [CBK017555] | 92.5 | –
CS(=O)(=O)Nc1ccc2c(O)c(C(=O)NCc3ccc(Cl)cc3)c(=O)[nH]c2c1 [CBK017559] | 88.9 | –
CCCN(Cc1cccs1)C1Cc2cc(OC)c(OC)cc2C1 [CBK017567C] | 96.8 | –
CC(=O)Oc1cc(Cl)ccc1C(=O)Nc1nnc(C(F)(F)F)s1 [CBK017569] | 84 | –
CCCN(CCCc1ccccc1)C1Cc2cc(OC)c(OC)cc2C1 [CBK017596C] | – | 96.6
O=C(Nc1ccc(C(F)(F)F)cc1)C1=C(O)CN(c2ccc(Cl)cc2)C1=O [CBK017603] | 84.8 | –
O=C(N[C@@H](Cc1ccc(OCc2ccc(Cl)cc2Cl)cc1)C(=O)O)C1CCCC1 [CBK017610] | 82.9 | –
O=C1O[C@@H](CCl)CN1c1ccc(N2CCOCC2)c(F)c1 [CBK017613] | 105 | –
O=C1CCCN1CCCNC(=O)C1(c2ccccc2)COc2ccccc21 (centres unmarked) [CBK017653] | 92.3 | –
CCCOc1ccc(C2(CCCCN3CCCC3)C(=O)Oc3ccc(C(C)(C)C)cc32)cc1 (centres unmarked) [CBK017655C] | 99.1 | –
CC(C)N(CCC(c1ccccc1)c1cc(Br)ccc1OCc1ccccc1)C(C)C (centres unmarked) [CBK017656] | 79.4 | –
Cc1cccc(C)c1NC(=O)C(C#N)C(=O)c1nn(-c2ccccc2)c2c1CSc1ccccc1-2 (centres unmarked) [CBK017678] | 81.8 | –

Compound | viability at 28.5 h, 10 µM [%] | viability at 28.5 h, 10 µM (bulk resorufin, single well) [%]
N#C/C(C(=O)Nc1ccccc1)=C(/O)c1nn(-c2ccccc2)c2c1CSc1ccccc1-2 [CBK017685] | 92.7 | –
N#CC(C(=O)NC1CCCCC1)C(=O)c1nn(-c2ccccc2)c2c1CSc1ccccc1-2 (centres unmarked) [CBK017690] | 103 | –
C#CCNCCCOc1ccccc1Oc1ccccc1 [CBK017707C] | 94.2 | –
CN1[C@@H]2CC[C@H]1C[C@@H](N1Cc3cc4ccccc4n3C1=O)C2 [CBK017722] | 124 | –
Oc1ccc(CCNc2ncnc3[nH]cnc23)cc1 [CBK017724C] | 101 | –
CC(NC(C)(C)C)C(O)COc1ccc(Cl)c2c1C1CCC2CC1 (centres unmarked) [CBK017752C] | 89.6 | –
CC(O)(CC(=O)O)CC(=O)OCCc1ccc2c(c1)CCC2 (centres unmarked) [CBK017766] | 95.2 | –
O=C(CCN1CCCCC1)Nc1ccc2c(=O)n3c(nc2c1)/C(=C/c1ccccc1)CC3 [CBK017786] | 94.1 | –
Cc1cc2oc(=O)c3c(c2cc1C)CCN(C)C3 [CBK017803] | 97 | –
CN1Cc2ccccc2-c2ccc(O)cc21 [CBK017804] | 97.2 | –
CN1CCC2(CC1)SC(=O)Nc1ccc(Br)cc12 [CBK017821B] | 100 | –
CCCN(CCc1ccc(C(F)(F)F)cc1)C1Cc2cc(OC)c(OC)cc2C1 [CBK017829C] | 103 | –
O=C1CN(C(=O)c2cccc(Cl)c2)c2ccccc2N1 [CBK017844] | 101 | –
O=C(O)CN1C(=O)S/C(=C\c2ccc([N+](=O)[O-])o2)C1=O [CBK017858] | 97.7 | –
COc1cc(C(CC(C)NC(C)(C)C)c2ccccc2)ccc1OCc1ccccc1 (centres unmarked) [CBK017901] | 79.8 | –
Cc1ccc(OCc2ccccc2)c(C(CCN(C(C)C)C(C)C)c2ccccc2)c1 (centres unmarked) [CBK017906] | 108 | –
O=C(O)c1cc2cc(F)ccc2[nH]1 [CBK017929] | 86.3 | –
CC(=O)NC[C@H]1CN(c2ccc(-c3nnc(C(C)O)s3)c(F)c2)C(=O)O1 (some centres unmarked) [CBK017968] | 99.6 | –
Cc1cc(N2C[C@H](CO)OC2=O)ccc1C#N [CBK017978] | 116 | –
O=C(NCc1ccc(Cl)cc1)c1cnc2ccc(C#CCO)cc2c1O [CBK017979] | 92.4 | –
O=C(Nc1n[nH]c2ccccc12)c1ccccc1 [CBK017993] | 90.1 | –
CC1CCn2c3c(c4cccc1c42)CCNCC3 (centres unmarked) [CBK018012C] | 97.4 | –
CN1CCCN(Cc2ccc3c(c2)c(=O)c(C(=O)NCc2ccc(Cl)cc2)cn3C)CC1 [CBK018019] | 82.8 | –

Compound | viability at 28.5 h, 10 µM [%] | viability at 28.5 h, 10 µM (bulk resorufin, single well) [%]
O=C(CSc1nc2ccccc2o1)N1c2ccccc2Sc2ccc(C(F)(F)F)cc21 [CBK018044] | 91.1 | –
CC(C(=O)N1c2ccccc2Sc2ccccc21)N1C(=O)c2ccccc2C1=O (centres unmarked) [CBK018045] | 105 | –
OCCOCCN1CCN(C(S)=Nc2ccccc2)CC1 [CBK018046] | 84.7 | –
CCCc1nc(NC(C)=O)c(C#N)c(-c2ccco2)c1CC [CBK018074] | 100 | –
CN(C)CCOCCS(=O)(=O)c1ccc(N2CCC(c3ccc(Cl)cc3)=N2)cc1 [CBK018115] | 114 | –
Cc1ccccc1N1C(=O)/C(=N\Nc2ccc(S(=O)(=O)O)cc2)C(=O)NC1=S [CBK018165] | – | 97.7
COC(=O)c1ccc(S(=O)(=O)C(F)(F)F)cc1N [CBK018172] | 114 | –
O=C(NCCN1CCOCC1)c1sc2cc(F)ccc2c1Cl [CBK018212] | 120 | –
CC(C)(Cc1ccccc1)NCC(O)COc1ccc2c(c1)C1CCC2C1 (centres unmarked) [CBK018228C] | 86.4 | –
CC(C)NC(=O)N1CCc2sccc2C1c1ccc(Cl)cc1 (centres unmarked) [CBK018247] | 108 | –
CSc1sc(C(=O)NC(=O)N2CCOCC2)c2c1-c1nocc1CC2 [CBK018284] | 74.3 | –
COc1cc2c(cc1OC)/C(=C/c1ccc[nH]1)C(=O)N2 [CBK018342] | 57.7 | –
O=C(O)c1sc2c(ccc3ccccc32)c1Br [CBK018387] | 90.4 | –
CCOc1ccc(S(=O)(=O)NCCCN2CCOCC2)c2ccccc12 [CBK018421] | 89.8 | –
CCCn1cc(C(=O)NCc2ccc(Cl)cc2)c(=O)c2cc(CN3CCOCC3)sc21 [CBK018478] | 93.8 | –
CC(=O)NC[C@H]1CN(c2ccc3c(c2)CCN(C(C)=O)CC3)C(=O)O1 [CBK018491] | 86.6 | –
CC(=O)NC[C@H]1CN(c2ccc3c(c2)CCN(C(=O)Oc2ccccc2)CC3)C(=O)O1 [CBK018498] | 91.2 | –
CC(=O)NC[C@H]1CN(c2ccc3c(c2)CCN(C(=O)Cc2ccccc2)CC3)C(=O)O1 [CBK018499] | 111 | –
CCN(CC)c1cc(N2CCCNCC2)ccc1S(=O)(=O)c1cccc(F)c1 [CBK018509C] | 101 | –
O=C(Nc1ccc(O)cc1C(=O)O)c1cccc(Br)c1 [CBK018511] | 89.1 | –
NCc1cnc2c(c1)CCC2 [CBK018584G] | 90.8 | –
CCOC(=O)C1=NOC2COC3(CCN(c4ncccn4)CC3)OCC12 (centres unmarked) [CBK018602] | 94.3 | –
CCOC(=O)CSc1c2cc3c(nc2nc(=O)n1Cc1ccccc1)CC(C)(C)OC3 [CBK018608] | 94.3 | –
